Test results from patent US20070142384A1, “Compounds, pharmaceutical compositions and methods for use in treating metabolic disorders” (AMGEN INC., priority 2004, published 2007).

Biological target: T1, human GPR40 (Homo sapiens, UniProt O14842)
T1 construct: expressed in transfected cells; host or cells: CHO cells, transient co-transfection with Aequorin expression vector (Euroscreen)
Assay: Cell-based aequorin assay using human GPR40
Conditions: activation of human GPR40; CHO cells transfected with GPR40 and Aequorin expression vectors; aequorin luminescence, area-under-curve 2-20 seconds; 0.01% BSA or 0.625% HSA; read-out: Relative EC50
Protocol: A cell-based aequorin assay may be employed to characterize the modulatory activity of compounds on the GPR40 signaling pathway. In an exemplary assay, CHO cells are transfected in a 15 cm plated containing 14 million cells with 5 μg of GPR40 expression vector and 5 μg of Aequorin expression vector (Euroscreen) using Lipofectamine 2000 (Invitrogen). […] Trypsinization is halted with 28 mL of Hanks Buffered Salt Solution containing 20 mM Hepes (H/HBSS) and 0.01% fatty acid-free bovine serum albumin (BSA) or 0.625% fatty acid-free human serum albumin (HSA). […] Cells are gently mixed every 15 minutes. Compounds are dissolved in dimethyl sulfoxide for preparation of 10 mM stock solutions. Compounds are diluted in H/HBSS containing either 0.01% BSA or 0.625% HSA. Serial dilutions of the test compounds are prepared to determine dose response.
Aequorin luminescence measurements are made using an EG&G Berthold 96-well luminometer and the response is measured over a 20 second interval after cells and compounds were mixed. […] The EC50 (effective concentration to reach 50% maximal response) is determined from the dose response plot. […]

T1 sequence (O14842 whole entry): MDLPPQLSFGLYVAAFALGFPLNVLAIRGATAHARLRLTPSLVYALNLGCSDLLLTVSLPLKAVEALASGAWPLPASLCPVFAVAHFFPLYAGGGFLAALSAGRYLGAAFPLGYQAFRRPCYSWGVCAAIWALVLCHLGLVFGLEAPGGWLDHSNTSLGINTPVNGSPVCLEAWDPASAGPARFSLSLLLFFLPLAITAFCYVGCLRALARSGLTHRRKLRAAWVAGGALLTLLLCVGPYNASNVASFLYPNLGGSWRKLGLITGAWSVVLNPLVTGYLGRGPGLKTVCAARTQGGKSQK

EC50: 1 to 10 µM
SMILES: O=C(O)CC(c1ccc(OCc2cccc(-c3ccc(C(F)(F)F)cc3)c2)cc1)C1CC1 (stereo not shown) [Compound 91]
